{"source": "patent US10329317B2", "about": "“Quinoline derivative for use in the treatment and prevention of viral infections” (ABIVAX, priority 2015, dated 2019)", "key": {"[1]": {"experiment": "First-in-man PK: compound (1) plasma levels after single oral ascending dose of compound (2)", "assay_type": "in vivo, human", "conditions": "for AUC(0-t) / AUC(0-inf) / Cmax / half-life / Tmax: male, human, plasma; for AUC(0-t) / AUC(0-inf) / Cmax / half-life: po; for Tmax: read-out: tmax, median", "method": "The present document details the pharmacokinetic (PK) results obtained in a first-in-man study with compound (2) consisting in a single oral ascending dose in healthy male subjects. Four (4) dose levels were investigated (50, 100, 150, and 200 mg).\nAt each dose level, 6 subjects were included and received a single oral dose of compound (2) so that a total of 24 subjects participated to the study and completed it. No study deviation was identified at the time of the PK analysis and thus, all subjects were included in the PK analysis.\nIn this study, plasma levels of compound (1) were measured.\nPK blood sampling was initially defined up to 48 h post-dose.\nBlood samples for assessment of compound (1) plasma levels are scheduled at the following time points: • Day 1 pre-dose, 0.33, 0.66, 1.00, 1.50, 2.00, 2.50, 3.00, 4.00, 6.00, 8.00, 10.00, and 12.00 h post-dose; • Day 2 24.00 and 36.00 h post-dose; • Day 3 48.00 h post-dose; • Day 10 240 h post-dose; • Day 24 576 h post-dose; • Day 45 1080 h post-dose.\nPlasma concentrations were processed throughout the PK software for PK data generation. The PK parameters were calculated by non-compartmental analysis (NCA), using Phoenix® WinNonlin® (Pharsight Corporation) running on a personal computer.\nFor the calculation of the PK parameters and characteristics the following rules were applied: • All the plasma concentrations validated provided to the pharmacokineticist were used for the PK analysis. • The actual blood sampling time points related to the preceding administration was used. • At time points in the lag-time between time zero and the first concentration equal or above limit of quantification (LOQ), concentrations below LOQ were set to zero (0). Concentrations below limit of quantification (BLOQ) between 2 concentrations equal or above LOQ were considered as missing data. Trailing concentrations BLOQ were used in calculations. • If pre-dose concentration was missing, it was arbitrary set to zero (0) assuming that expected results would have been BLOQ.\nFor each subject receiving the active treatment in each cohort, the following PK parameters of compound (1) were to be derived:\nCmax The observed maximum concentration measured in plasma was obtained directly from the concentration-time data.\ntmax The time at which Cmax was apparent, identified by inspection of the plasma drug concentration vs. time data by Phoenix® WinNonlin®.\nAUC0-t The area under the concentration-time curve from time zero (pre-dose) to the time of last quantifiable concentration was calculated using a linear trapezoidal method.\nke The terminal plasma elimination rate-constant was estimated from log-linear regression analysis of the terminal phase of the plasma concentration-time profile. The number of points included in the terminal phase was determined by visual inspection of the semi-log plots of the plasma concentration-time profiles (at least 3). AUC0-∞ The AUC from time 0 to infinity was calculated as AUC0-∞=AUC0-t+AUCt-∞, where AUC0-t is the area under the concentration-time curve from time zero (pre-dose) to the time of last quantifiable concentration calculated using a […] trapezoidal method and AUCt-∞=Ct/ke, where Ct is the measured concentration at time of the last quantifiable concentration t. The extrapolated part of AUC0-∞ must be <20% for the value to be considered as reliable. t1/2 The apparent terminal elimination half-life was calculated as ln 2/ke, where ke is the elimination rate constant during the terminal phase determined by the log-linear regression obtained on at least the 3 last quantifiable concentrations and using actual blood sampling times. The correlation coefficient for the goodness of the fit of the regression line through the data points must be 0.8500 or higher, for the value to be considered reliable."}, "[2]": {"experiment": "Solubility compared with Compound 2 (statement only)", "assay_type": "physicochemical"}, "[3]": {"test_system": "HIV-1 strain YU2", "experiment": "HIV-1 production (p24 ELISA) in infected monocyte derived macrophages", "assay_type": "cell-based", "procedure": "HIV-1 strain YU2 was used to infect monocyte derived-macrophages from three different donors (donors 349, 350 and 351; respectively FIGS. 2A, 2B, and 2C panel) in the presence of increasing concentrations of the (glucuronidated) Compound 1, at 1.5 μM, 10 μM and 30 μM. The viral capsid protein p24 antigen was quantitated using standard ELISA protocol (expressed in pg/mL in y-axis). R-10 corresponds to untreated cells. […] To generate monocyte derived macrophages (MDMs), monocytes were isolated using CD14 microbeads (catalog no. 130-050-201; Miltenyi) and cultured in X-VIVO10 medium (Lonza) supplemented with GM-CSF 1000 U/ml and M-CSF 100 ng/ml for 6 days. Monocytes were seeded at a cell count of 50′000 cells per well in a 96 well plate. After 6 days medium was replaced with X-VIVO10 w/o Cytokines. After 2 days Macrophages were treated with Compound (1) o/n and next day infected with Yu-2 virus for 6 hrs, washed with PBS and cultured in medium containing the compounds for 12 days. Supernatant for p24 Elisa was collected 2 times a week. Cells were treated with 1.5 μM up to 30 μM and p24 antigen levels were monitored in culture supernatant over a 12 day period (R-10 corresponds to untreated cells) (FIG. 2)."}}, "note": "Where two headings read alike, the source gives them in different places.", "data": [{"compound": "O=C(O)[C@H]1O[C@@H](N(c2ccc(OC(F)(F)F)cc2)c2ccc3cccc(Cl)c3n2)[C@H](O)[C@@H](O)[C@@H]1O", "note": "[Compound 1, N-β-glucuronide of 8-chloro-N-(4-(trifluoromethoxy)phenyl)quinolin-2-amine]", "values": [{"measurement": "compound (1) plasma concentrations versus parent drug", "setting": "[1]; after single oral compound (2), regardless of the dose", "result": "markedly higher"}, {"measurement": "AUC(0-t)", "setting": "[1]; 50 mg, 50 mg compound (2) single oral, N=6, read-out: AUC0-t, GM (geometric mean)", "result": 196, "unit": "µg·h/mL"}, {"measurement": "AUC(0-t)", "setting": "[1]; 50 mg, 50 mg compound (2) single oral, N=6, read-out: AUC0-t, Mean", "result": 209, "unit": "µg·h/mL"}, {"measurement": "AUC(0-inf)", "setting": "[1]; 50 mg, 50 mg compound (2) single oral, N=6, read-out: AUC0-∞, GM (geometric mean)", "result": 198, "unit": "µg·h/mL"}, {"measurement": "AUC(0-inf)", "setting": "[1]; 50 mg, 50 mg compound (2) single oral, N=6, read-out: AUC0-∞, Mean", "result": 212, "unit": "µg·h/mL"}, {"measurement": "Cmax", "setting": "[1]; 50 mg, 50 mg compound (2) single oral, N=6, read-out: Cmax, GM (geometric mean)", "result": 2540, "unit": "ng/mL"}, {"measurement": "Cmax", "setting": "[1]; 50 mg, 50 mg compound (2) single oral, N=6, read-out: Cmax, Mean", "result": 2630, "unit": "ng/mL"}, {"measurement": "half-life", "setting": "[1]; 50 mg, 50 mg compound (2) single oral, N=6, read-out: t1/2, GM (geometric mean) (converted)", "result": 95.7, "unit": "h"}, {"measurement": "half-life", "setting": "[1]; 50 mg, 50 mg compound (2) single oral, N=6, read-out: t1/2, Mean (converted)", "result": 97.3, "unit": "h"}, {"measurement": "AUC(0-t)", "setting": "[1]; 100 mg, 100 mg compound (2) single oral, N=6, read-out: AUC0-t, GM (geometric mean)", "result": 468, "unit": "µg·h/mL"}, {"measurement": "AUC(0-t)", "setting": "[1]; 100 mg, 100 mg compound (2) single oral, N=6, read-out: AUC0-t, Mean", "result": 499, "unit": "µg·h/mL"}, {"measurement": "AUC(0-inf)", "setting": "[1]; 100 mg, 100 mg compound (2) single oral, N=6, read-out: AUC0-∞, GM (geometric mean)", "result": 476, "unit": "µg·h/mL"}, {"measurement": "AUC(0-inf)", "setting": "[1]; 100 mg, 100 mg compound (2) single oral, N=6, read-out: AUC0-∞, Mean", "result": 505, "unit": "µg·h/mL"}, {"measurement": "Cmax", "setting": "[1]; 100 mg, 100 mg compound (2) single oral, N=6, read-out: Cmax, GM (geometric mean)", "result": 5400, "unit": "ng/mL"}, {"measurement": "Cmax", "setting": "[1]; 100 mg, 100 mg compound (2) single oral, N=6, read-out: Cmax, Mean", "result": 5720, "unit": "ng/mL"}, {"measurement": "half-life", "setting": "[1]; 100 mg, 100 mg compound (2) single oral, N=6, read-out: t1/2, GM (geometric mean) (converted)", "result": 111, "unit": "h"}, {"measurement": "half-life", "setting": "[1]; 100 mg, 100 mg compound (2) single oral, N=6, read-out: t1/2, Mean (converted)", "result": 111, "unit": "h"}, {"measurement": "AUC(0-t)", "setting": "[1]; 150 mg, 150 mg compound (2) single oral, N=6, read-out: AUC0-t, GM (geometric mean)", "result": 560, "unit": "µg·h/mL"}, {"measurement": "AUC(0-t)", "setting": "[1]; 150 mg, 150 mg compound (2) single oral, N=6, read-out: AUC0-t, Mean", "result": 659, "unit": "µg·h/mL"}, {"measurement": "AUC(0-inf)", "setting": "[1]; 150 mg, 150 mg compound (2) single oral, N=6, read-out: AUC0-∞, GM (geometric mean)", "result": 563, "unit": "µg·h/mL"}, {"measurement": "AUC(0-inf)", "setting": "[1]; 150 mg, 150 mg compound (2) single oral, N=6, read-out: AUC0-∞, Mean", "result": 664, "unit": "µg·h/mL"}, {"measurement": "Cmax", "setting": "[1]; 150 mg, 150 mg compound (2) single oral, N=6, read-out: Cmax, GM (geometric mean)", "result": 8270, "unit": "ng/mL"}, {"measurement": "Cmax", "setting": "[1]; 150 mg, 150 mg compound (2) single oral, N=6, read-out: Cmax, Mean", "result": 9240, "unit": "ng/mL"}, {"measurement": "half-life", "setting": "[1]; 150 mg, 150 mg compound (2) single oral, N=6, read-out: t1/2, GM (geometric mean) (converted)", "result": 95.7, "unit": "h"}, {"measurement": "half-life", "setting": "[1]; 150 mg, 150 mg compound (2) single oral, N=6, read-out: t1/2, Mean (converted)", "result": 99.2, "unit": "h"}, {"measurement": "AUC(0-t)", "setting": "[1]; 200 mg, 200 mg compound (2) single oral, N=6, read-out: AUC0-t, GM (geometric mean)", "result": 436, "unit": "µg·h/mL"}, {"measurement": "AUC(0-t)", "setting": "[1]; 200 mg, 200 mg compound (2) single oral, N=6, read-out: AUC0-t, Mean", "result": 559, "unit": "µg·h/mL"}, {"measurement": "AUC(0-inf)", "setting": "[1]; 200 mg, 200 mg compound (2) single oral, N=6, read-out: AUC0-∞, GM (geometric mean)", "result": 438, "unit": "µg·h/mL"}, {"measurement": "AUC(0-inf)", "setting": "[1]; 200 mg, 200 mg compound (2) single oral, N=6, read-out: AUC0-∞, Mean", "result": 560, "unit": "µg·h/mL"}, {"measurement": "Cmax", "setting": "[1]; 200 mg, 200 mg compound (2) single oral, N=6, read-out: Cmax, GM (geometric mean)", "result": 5900, "unit": "ng/mL"}, {"measurement": "Cmax", "setting": "[1]; 200 mg, 200 mg compound (2) single oral, N=6, read-out: Cmax, Mean", "result": 7910, "unit": "ng/mL"}, {"measurement": "half-life", "setting": "[1]; 200 mg, 200 mg compound (2) single oral, N=6, read-out: t1/2, GM (geometric mean) (converted)", "result": 87.8, "unit": "h"}, {"measurement": "half-life", "setting": "[1]; 200 mg, 200 mg compound (2) single oral, N=6, read-out: t1/2, Mean (converted)", "result": 89.5, "unit": "h"}, {"measurement": "half-life", "setting": "[1]; healthy male subjects, single oral 50 to 200 mg compound (2), read-out: elimination half life (t1/2) (converted)", "result": "~100", "unit": "h"}, {"measurement": "Tmax", "setting": "[1]; 50 mg compound (2) single oral, N=6", "result": 4, "unit": "h"}, {"measurement": "Tmax", "setting": "[1]; 100 mg compound (2) single oral, N=6", "result": 4, "unit": "h"}, {"measurement": "Tmax", "setting": "[1]; 150 mg compound (2) single oral, N=6", "result": 4, "unit": "h"}, {"measurement": "Tmax", "setting": "[1]; 200 mg compound (2) single oral, N=6", "result": 6, "unit": "h"}, {"measurement": "time of first quantifiable compound (1) concentration", "setting": "[1]; post-dose, 20 subjects out of 24", "result": "~40", "unit": "min"}, {"measurement": "solubility relative to Compound 2", "setting": "[2]", "result": "more soluble"}, {"measurement": "inhibition at 30 µM", "setting": "[3]; Human immunodeficiency virus 1, Primary macrophage, 288 h, primary macrophages, 30 μM, 12 day period, read-out: inhibition of virus replication (p24 antigen in culture supernatant)", "result": "≤ 60", "unit": "%"}, {"measurement": "toxicity", "setting": "[3]; macrophages, 1.5 μM up to 30 μM", "result": "low toxicity"}]}]}
